Active and inactive are the calls of the source.
Experiments:
HEK293 [1] = assay: HEK293T cell viability loss, resazurin readout – resazurin fluorescence, cytotoxicity control for NF-kB activator project, SAR follow-up (AID 493251); type: functional, cell-based; settings: Homo sapiens
HEK293 [2] = assay: SAR Analysis of small molecule inhibitors of T-cell specific antigen receptor-induced NF-kB activation in a HEK-293T cell line using a luminescence assay - Set 2. [Related pubchem assays (depositor defined):AID435003, AID435012, AID489026]; type: functional, cell-based; settings: Homo sapiens
[3] = Luminescence-based dose response cell-based high throughput screening assay for cytotoxic compounds using the IEC-6 intestinal epithelial cell line. [Related pubchem assays: 1858 (Summary AID.), 1825 (Counterscreen.), 1907 (Confirmation screen.)]; type: functional
[4] = fluconazole-exposed Candida albicans growth modulators – fluorescence, retest, confirmation (AID 2467); type: functional, cell-based
[5] = target: T1, Serine/threonine-protein phosphatase (Candida dubliniensis (strain CD36 / CBS 7987 / NCPF 3949 / NRRLY-17841) (Yeast), UniProt B9W6M3); assay: blockers of CaCl2-induced CDRE-lacZ signaling – S. cerevisiae, luminescence, secondary, dose response (AID 2388); type: functional, cell-based;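 note: yeast reporter cells carrying a calcineurin-responsive lacZ construct stimulated with calcium chloride; luminescent beta-galactosidase reporter signal in whole cells rather than isolated phosphatase activity; potency for inhibition where a drop in reporter signal means calcineurin blockade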
T1 sequence (B9W6M3 whole entry): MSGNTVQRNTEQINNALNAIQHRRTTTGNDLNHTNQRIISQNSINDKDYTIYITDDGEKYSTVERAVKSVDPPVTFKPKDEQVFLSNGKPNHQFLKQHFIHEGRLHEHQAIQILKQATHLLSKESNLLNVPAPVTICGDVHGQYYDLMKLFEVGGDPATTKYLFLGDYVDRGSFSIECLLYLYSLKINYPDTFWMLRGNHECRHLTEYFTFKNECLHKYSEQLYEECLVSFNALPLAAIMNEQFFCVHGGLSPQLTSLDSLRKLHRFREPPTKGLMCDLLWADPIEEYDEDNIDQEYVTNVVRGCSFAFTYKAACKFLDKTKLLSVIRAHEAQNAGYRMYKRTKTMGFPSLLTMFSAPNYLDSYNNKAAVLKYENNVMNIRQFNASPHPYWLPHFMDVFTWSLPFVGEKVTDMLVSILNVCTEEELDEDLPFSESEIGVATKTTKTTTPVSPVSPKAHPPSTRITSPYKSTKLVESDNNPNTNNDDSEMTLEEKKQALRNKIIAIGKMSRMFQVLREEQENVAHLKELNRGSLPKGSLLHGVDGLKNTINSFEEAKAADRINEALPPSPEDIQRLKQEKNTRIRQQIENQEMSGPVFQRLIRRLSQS

Caspase-8 = Caspase-8 (Homo sapiens, UniProt Q14790); assay: inhibitors of purified CASP8 protease – biochemical, Z-IETD-R110 fluorescence, cherry-picked samples, selectivity assay for caspase-6 inhibitor project, dose response (AID 743294)
[6] = target: T2, Sentrin-specific protease 7 (Homo sapiens, UniProt Q9BQF6); type: functional;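 note: Luminescence-based dose-response confirmation of ultra-high-throughput screening hits, measuring inhibition of SENP7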
T2 sequence (Q9BQF6 whole entry): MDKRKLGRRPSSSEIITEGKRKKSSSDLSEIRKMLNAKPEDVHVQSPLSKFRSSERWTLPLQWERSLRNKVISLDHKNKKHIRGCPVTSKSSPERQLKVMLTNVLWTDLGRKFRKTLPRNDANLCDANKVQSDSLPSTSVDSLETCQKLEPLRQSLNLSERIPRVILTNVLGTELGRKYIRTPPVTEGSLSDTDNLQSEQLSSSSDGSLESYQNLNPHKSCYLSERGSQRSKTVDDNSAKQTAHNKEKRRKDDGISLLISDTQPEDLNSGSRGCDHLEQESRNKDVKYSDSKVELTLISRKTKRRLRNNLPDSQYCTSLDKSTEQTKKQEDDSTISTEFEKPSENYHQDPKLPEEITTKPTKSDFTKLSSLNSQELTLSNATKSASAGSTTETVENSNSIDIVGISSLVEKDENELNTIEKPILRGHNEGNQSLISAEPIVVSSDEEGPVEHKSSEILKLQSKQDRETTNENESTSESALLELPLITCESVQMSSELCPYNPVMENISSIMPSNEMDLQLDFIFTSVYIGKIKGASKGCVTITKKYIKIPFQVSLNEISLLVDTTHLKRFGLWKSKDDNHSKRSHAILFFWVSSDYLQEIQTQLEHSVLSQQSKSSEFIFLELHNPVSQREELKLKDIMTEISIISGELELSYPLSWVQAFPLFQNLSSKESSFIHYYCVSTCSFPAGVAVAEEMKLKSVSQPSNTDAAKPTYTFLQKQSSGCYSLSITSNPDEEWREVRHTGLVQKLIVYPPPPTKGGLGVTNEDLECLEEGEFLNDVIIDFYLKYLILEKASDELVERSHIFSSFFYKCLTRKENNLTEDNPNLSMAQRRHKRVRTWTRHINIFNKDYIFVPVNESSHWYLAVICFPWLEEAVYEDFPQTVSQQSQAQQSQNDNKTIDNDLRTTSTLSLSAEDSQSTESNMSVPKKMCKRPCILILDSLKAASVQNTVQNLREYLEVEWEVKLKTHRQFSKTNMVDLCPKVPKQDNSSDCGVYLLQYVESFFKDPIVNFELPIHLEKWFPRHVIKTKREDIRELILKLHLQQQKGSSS

[7] = target: T3, Sentrin-specific protease 8 (Homo sapiens, UniProt Q96LD8); type: functional;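 note: luminescence read-out of SENP8 inhibition, dose-response confirmation following an ultra-high-throughput screen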
T3 sequence (Q96LD8 whole entry): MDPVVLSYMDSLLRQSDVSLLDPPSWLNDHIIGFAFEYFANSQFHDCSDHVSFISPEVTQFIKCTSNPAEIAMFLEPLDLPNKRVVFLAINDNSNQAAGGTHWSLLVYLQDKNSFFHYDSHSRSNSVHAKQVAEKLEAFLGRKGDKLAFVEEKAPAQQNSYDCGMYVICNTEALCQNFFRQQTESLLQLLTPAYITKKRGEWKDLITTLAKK

Caspase-3 = target: T4, Caspase-3 (Homo sapiens, UniProt P42574); type: functional;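 note: Dose-response selectivity test against caspase-3 for candidate inhibitors of sentrin-specific proteases (SENPs)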
T4 sequence (P42574 whole entry): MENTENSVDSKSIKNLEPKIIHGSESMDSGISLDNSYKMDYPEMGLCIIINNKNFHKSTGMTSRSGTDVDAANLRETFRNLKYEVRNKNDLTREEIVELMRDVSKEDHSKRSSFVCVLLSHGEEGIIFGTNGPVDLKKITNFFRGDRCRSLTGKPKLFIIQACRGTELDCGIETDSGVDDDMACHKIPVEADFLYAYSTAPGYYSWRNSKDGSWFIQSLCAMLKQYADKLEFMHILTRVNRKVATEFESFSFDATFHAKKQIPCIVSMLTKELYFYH

Caspase-8, sequence (Q14790 217-374 limits assumed): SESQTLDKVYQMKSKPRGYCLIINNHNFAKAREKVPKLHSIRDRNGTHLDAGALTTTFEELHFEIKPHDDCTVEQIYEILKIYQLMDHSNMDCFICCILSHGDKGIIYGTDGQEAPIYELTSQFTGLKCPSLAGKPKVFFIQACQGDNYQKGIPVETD
Caspase-8, sequence (Q14790 385-479 limits assumed): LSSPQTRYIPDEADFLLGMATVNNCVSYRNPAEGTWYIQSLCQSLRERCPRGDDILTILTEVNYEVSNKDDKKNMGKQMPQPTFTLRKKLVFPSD

Row | SMILES | IC50 (HEK293 [1]) | IC50 (HEK293 [2]) | IC50 [3] | EC50 [4] | EC50 [5] | AC50 (Caspase-8) | IC50 [6] | IC50 [7] | IC50 (Caspase-3)
1 | CCCCC(=O)NC(c1ccc(N(C)C)cc1)c1ccc2cccnc2c1O (centres undefined) | 41.2 µM (inactive) | 2.23 µM (active) | 1.72 µM (active) | 0.832 µM (active) | > 180 µM (inactive) | – | – | – | –
2 | CN(CC(=O)Nc1ccccc1Cl)C(=O)COC(=O)c1ccc([N+](=O)[O-])s1 | – | – | – | – | – | 23.8 µM (active) | 8.73 µM (active) | 3.95 µM (active) | 6.21 µM (active)

From ChEMBL document CHEMBL1201862, “PubChem BioAssay data set” (2004)
